Source: patent US9880154B2, “Method for screening drugs and animal model for same” (priority 2014, dated 2018)
Structures can show the parent of a compound that is named as a salt.

What was measured:
Sarcocystis neurona = assay: Production of persistent parasitemia in a horse challenged with S. neurona (autologous leukocyte model); format: in vivo
Protocol: In a first preferred embodiment a parasite population was isolated from horses as described in an experimental model (Experimental infection of horses with culture derived Sarcocystis neurnoa merozoites as a model for equine protozoal myeloencephalitis, 2004) and used to infect a yearling thoroughbred filly. The challenge (6000 organisms/day) was used daily for 10 days. Concurrent with the challenge infection the filly was administered 1 mg/kg levamisole HCl orally for 21 days. […] Daily blood samples were taken and 5 microliters of blood were used to prepare thin layer smears followed by staining with Geimsa. Ten fields were counted to determine the presence of S. neurona. A hemocytometer was used to determine the number of parasites per ml of peripheral blood. […] At the end of fourteen days the filly was treated with decoquinate orally at 0.5 mg/kg for 10 days.

[1] = horses, 5 mg/kg (2800 mg) orally, at one hour; reportedly; cited from earlier work
S. neurona = settings: 1 mg/kg
Protocol: Field cases of idiopathic encephalitis associated with EPM due to S. neurona were identified by veterinary clinical examination. […] Signs were assessed by the Field Veterinarian by a neurological examination of gait and scored on a scale of 1-5. Attributable data was obtained from 27 Field Veterinarians. Thirty-three animals were included into the study, missing data from 21 horses prevented inclusion of these 21 animals into the study analysis. In the included data set, one Field Veterinarian submitted data for 6 animals, one Field Veterinarian submitted data from two animals, and 25 veterinarians submitted data for one animal.
Horses were evaluated for a change in gait score by subtracting the gait score after treatment from the gait score before treatment.

[2] = Day 30, levamisole HCl 1 mg/kg orally 21 days, decoquinate 0.5 mg/kg orally 10 days from end of day 14
[3] = Day 14, 1 mg/kg orally for 21 days concurrent with challenge

Row | Structure (SMILES) | visible parasites in the blood (Sarcocystis neurona; Day 30, decoquinate orally 0.5 mg/kg for 10 days from end of day 14, after levamisole HCl 1 mg/kg for 21 days) | clinical signs of disease (Sarcocystis neurona; [2]) | plasma level [1] [ng/mL] | parasitemia (Sarcocystis neurona; Day 10, in the serum, 1 mg/kg orally for 21 days concurrent with challenge) | clinical signs of disease (Sarcocystis neurona; Day 10, yearling filly, challenge 6000 organisms/day for 10 days, 1 mg/kg orally for 21 days) | clinical signs of disease (Sarcocystis neurona; [3]) | parasitemia (Sarcocystis neurona; [3]) | animals with gait score worse or not changed after treatment (S. neurona; 33 horses) [%] | horses with gait score improved by at least one grade after treatment (S. neurona; 33 horses with signs of EPM not resolved with conventional treatment) [%]
1 | CCCCCCCCCCOc1cc2c(O)c(C(=O)OCC)cnc2cc1OCC [decoquinate] | no visible parasites in the blood | no clinical signs of disease |  |  |  |  |  |  | 
2 | c1ccc([C@H]2CN3CCSC3=N2)cc1 [levamisole HCl] |  | no clinical signs of disease | 485 | one million | no clinical signs | no clinical signs of disease | one million | 18 | 82
